Patent US8999940B2 (Ipsen Pharma S.A.S., priority 2008, dated 2015)

What was measured:
[1] = target: T1, human recombinant GIP receptor (Homo sapiens, UniProt P48546); assay: In vitro hGIP receptor binding assay
T1 construct: expressed in transfected cells; host or cells: CHO-K1 clonal cells (membrane preparation)
T1 sequence (P48546 22-466): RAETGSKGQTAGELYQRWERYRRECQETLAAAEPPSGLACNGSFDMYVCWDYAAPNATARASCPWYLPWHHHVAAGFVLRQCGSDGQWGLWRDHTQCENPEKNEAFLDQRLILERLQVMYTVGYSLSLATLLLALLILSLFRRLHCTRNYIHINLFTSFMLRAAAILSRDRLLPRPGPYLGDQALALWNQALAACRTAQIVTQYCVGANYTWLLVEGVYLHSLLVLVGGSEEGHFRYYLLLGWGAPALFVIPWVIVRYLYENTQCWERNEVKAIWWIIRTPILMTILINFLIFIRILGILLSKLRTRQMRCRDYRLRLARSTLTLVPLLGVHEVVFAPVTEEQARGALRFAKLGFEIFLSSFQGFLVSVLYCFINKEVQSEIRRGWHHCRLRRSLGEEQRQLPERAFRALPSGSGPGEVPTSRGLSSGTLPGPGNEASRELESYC
Description: A. In Vitro hGIP Receptor Binding Assay […] The incubations were terminated by rapid filtration through GF/C filters (pre-soaked in 0.5% polyethylenimine) using a Brandel filtration manifold. Each tube and filter were then washed three times with 5-ml aliquots of ice-cold buffer.

[2] = Human plasma half-life assay; type: in vitro ADME; conditions: 37° C., LC-MS, read-out: Human Plasma T½ (converted)
[3] = Rat plasma half-life assay; type: in vitro ADME; conditions: 37° C., LC-MS, read-out: Rat Plasma T½ (converted)

Row | SMILES | Ki [1] | half-life at 0.1 mg/ml [2] | half-life at 0.1 mg/ml [3]
1 | CC[C@H](C)[C@H](NC(=O)[C@H](CCCCN)NC(=O)[C@H](CC(=O)O)NC(=O)[C@H](CCSC)NC(=O)[C@H](C)NC(=O)[C@@H](NC(=O)C1(NC(=O)[C@H](Cc2ccc(O)cc2)NC(=O)[C@H](CC(=O)O)NC(=O)[C@H](CO)NC(=O)[C@@H](NC(=O)[C@H](Cc2ccccc2)NC(=O)[C@@H](NC(=O)CNC(=O)[C@H](CCC(=O)O)NC(=O)C(C)(C)NC(=O)[C@@H](N)Cc2cccnc2)[C@@H](C)O)[C@@H](C)CC)CCCC1)[C@@H](C)CC)C(=O)N[C@@H](Cc1c[nH]cn1)C(=O)N[C@@H](CCC(N)=O)C(=O)N[C@@H](CCC(N)=O)C(=O)N[C@@H](CC(=O)O)C(=O)N[C@@H](Cc1ccccc1)C(=O)N[C@H](C(=O)N[C@@H](CC(N)=O)C(=O)N[C@@H](Cc1c[nH]c2ccccc12)C(=O)N[C@@H](CC(C)C)C(=O)N[C@@H](CC(C)C)C(=O)N[C@@H](C)C(=O)N[C@@H](CCC(N)=O)C(=O)N[C@@H](CCCCN)C(=O)NCC(=O)N[C@@H](CCCCN)C(=O)N[C@@H](CCCCN)C(=O)N[C@@H](CC(N)=O)C(=O)N[C@@H](CC(=O)O)C(=O)N[C@@H](Cc1c[nH]c2ccccc12)C(=O)N[C@@H](CCCCN)C(=O)N[C@@H](Cc1c[nH]cn1)C(=O)N[C@@H](CC(N)=O)C(=O)N[C@H](C(=O)NC1(C(=O)N[C@@H](CCC(N)=O)C(=O)O)CCCC1)[C@@H](C)CC)C(C)C [Example 34, (3-Pal^1, Aib^2, A5c^11, 41)hGIP(1-42)-OH] | 9.75 nM | > 63 h | 16.3 h
2 | CCCC[C@H](NC(=O)[C@H](C)NC(=O)[C@@H](NC(=O)C1(NC(=O)[C@H](Cc2ccc(O)cc2)NC(=O)[C@H](CC(=O)O)NC(=O)[C@H](CO)NC(=O)[C@@H](NC(=O)[C@H](Cc2ccccc2)NC(=O)[C@@H](NC(=O)CNC(=O)[C@H](CCC(=O)O)NC(=O)C(C)(C)NC(=O)[C@@H](N)Cc2ccc(Cl)cc2)[C@@H](C)O)[C@@H](C)CC)CCCC1)[C@@H](C)CC)C(=O)N[C@@H](CC(=O)O)C(=O)N[C@@H](CCCCN)C(=O)N[C@H](C(=O)N[C@@H](Cc1c[nH]cn1)C(=O)N[C@@H](CCC(N)=O)C(=O)N[C@@H](CCC(N)=O)C(=O)N[C@@H](CC(=O)O)C(=O)N[C@@H](Cc1ccccc1)C(=O)N[C@H](C(=O)N[C@@H](CC(N)=O)C(=O)N[C@@H](Cc1c[nH]c2ccccc12)C(=O)N[C@@H](CC(C)C)C(=O)N[C@@H](CC(C)C)C(=O)N[C@@H](C)C(=O)N[C@@H](CCC(N)=O)C(=O)N[C@@H](CCCCN)C(=O)NCC(=O)N[C@@H](CCCCN)C(=O)N[C@@H](CCCCN)C(=O)N[C@@H](CC(N)=O)C(=O)N[C@@H](CC(=O)O)C(=O)N[C@@H](Cc1c[nH]c2ccccc12)C(=O)N[C@@H](CCCCN)C(=O)N[C@@H](Cc1c[nH]cn1)C(=O)N[C@@H](CC(N)=O)C(=O)N[C@H](C(=O)N[C@H](C(=O)N[C@@H](CCC(N)=O)C(=O)O)[C@@H](C)O)[C@@H](C)CC)C(C)C)[C@@H](C)CC [Example 20, (Cpa^1, Aib^2, A5c^11, Nle^14)hGIP(1-42)-OH] | 9.4 nM | > 74 h | 24.3 h
3 | CC[C@H](C)[C@H](NC(=O)[C@H](CCCCN)NC(=O)[C@H](CC(=O)O)NC(=O)[C@H](CCSC)NC(=O)[C@H](C)NC(=O)[C@@H](NC(=O)C1(NC(=O)[C@H](Cc2ccc(O)cc2)NC(=O)[C@H](CC(=O)O)NC(=O)[C@H](CO)NC(=O)[C@@H](NC(=O)[C@H](Cc2ccccc2)NC(=O)[C@@H](NC(=O)CNC(=O)[C@H](CCC(=O)O)NC(=O)C(C)(C)NC(=O)[C@@H](N)Cc2ccsc2)[C@@H](C)O)[C@@H](C)CC)CCCC1)[C@@H](C)CC)C(=O)N[C@@H](Cc1c[nH]cn1)C(=O)N[C@@H](CCC(N)=O)C(=O)N[C@@H](CCC(N)=O)C(=O)N[C@@H](CC(=O)O)C(=O)N[C@@H](Cc1ccccc1)C(=O)N[C@H](C(=O)N[C@@H](CC(N)=O)C(=O)N[C@@H](Cc1c[nH]c2ccccc12)C(=O)N[C@@H](CC(C)C)C(=O)N[C@@H](CC(C)C)C(=O)N[C@@H](C)C(=O)N[C@@H](CCC(N)=O)C(=O)N[C@@H](CCCCN)C(=O)NCC(=O)N[C@@H](CCCCN)C(=O)N[C@@H](CCCCN)C(=O)N[C@@H](CC(N)=O)C(=O)N[C@@H](CC(=O)O)C(=O)N[C@@H](Cc1c[nH]c2ccccc12)C(=O)N[C@@H](CCCCN)C(=O)N[C@@H](Cc1c[nH]cn1)C(=O)N[C@@H](CC(N)=O)C(=O)N[C@H](C(=O)NC1(C(=O)N[C@@H](CCC(N)=O)C(=O)O)CCCC1)[C@@H](C)CC)C(C)C [Example 37, (3Thi^1, Aib^2, A5c^11, 41)hGIP(1-42)-OH] | 7.05 nM | 29.3 h | > 72 h
4 | CCCC[C@H](NC(=O)[C@H](C)NC(=O)[C@@H](NC(=O)C1(NC(=O)[C@H](Cc2ccc(O)cc2)NC(=O)[C@H](CC(=O)O)NC(=O)[C@H](CO)NC(=O)[C@@H](NC(=O)[C@H](Cc2ccccc2)NC(=O)[C@@H](NC(=O)CNC(=O)[C@H](CCC(=O)O)NC(=O)C(C)(C)NC(=O)[C@@H](N)Cc2cc(F)c(F)c(F)c2)[C@@H](C)O)[C@@H](C)CC)CCCC1)[C@@H](C)CC)C(=O)N[C@@H](CC(=O)O)C(=O)N[C@@H](CCCCN)C(=O)N[C@H](C(=O)N[C@@H](Cc1c[nH]cn1)C(=O)N[C@@H](CCC(N)=O)C(=O)N[C@@H](CCC(N)=O)C(=O)N[C@@H](CC(=O)O)C(=O)N[C@@H](Cc1ccccc1)C(=O)N[C@H](C(=O)N[C@@H](CC(N)=O)C(=O)N[C@@H](Cc1c[nH]c2ccccc12)C(=O)N[C@@H](CC(C)C)C(=O)N[C@@H](CC(C)C)C(=O)N[C@@H](C)C(=O)N[C@@H](CCC(N)=O)C(=O)N[C@@H](CCCCN)C(=O)NCC(=O)N[C@@H](CCCCN)C(=O)N[C@@H](CCCCN)C(=O)N[C@@H](CC(N)=O)C(=O)N[C@@H](CC(=O)O)C(=O)N[C@@H](Cc1c[nH]c2ccccc12)C(=O)N[C@@H](CCCCN)C(=O)N[C@@H](Cc1c[nH]cn1)C(=O)N[C@@H](CC(N)=O)C(=O)N[C@H](C(=O)N[C@H](C(=O)N[C@@H](CCC(N)=O)C(=O)O)[C@@H](C)O)[C@@H](C)CC)C(C)C)[C@@H](C)CC [Example 22, (3,4,5F-Phe^1, Aib^2, A5c^11, Nle^14)hGIP(1-42)-OH] | 31.1 nM | > 74 h | 69.3 h
5 | CCCC[C@H](NC(=O)[C@H](C)NC(=O)[C@@H](NC(=O)C1(NC(=O)[C@H](Cc2ccc(O)cc2)NC(=O)[C@H](CC(=O)O)NC(=O)[C@H](CO)NC(=O)[C@@H](NC(=O)[C@H](Cc2ccccc2)NC(=O)[C@@H](NC(=O)CNC(=O)[C@H](CCC(=O)O)NC(=O)C(C)(C)NC(=O)[C@@H](N)Cc2ccc(O)c(Br)c2)[C@@H](C)O)[C@@H](C)CC)CCCC1)[C@@H](C)CC)C(=O)N[C@@H](CC(=O)O)C(=O)N[C@@H](CCCCN)C(=O)N[C@H](C(=O)N[C@@H](Cc1c[nH]cn1)C(=O)N[C@@H](CCC(N)=O)C(=O)N[C@@H](CCC(N)=O)C(=O)N[C@@H](CC(=O)O)C(=O)N[C@@H](Cc1ccccc1)C(=O)N[C@H](C(=O)N[C@@H](CC(N)=O)C(=O)N[C@@H](Cc1c[nH]c2ccccc12)C(=O)N[C@@H](CC(C)C)C(=O)N[C@@H](CC(C)C)C(=O)N[C@@H](C)C(=O)N[C@@H](CCC(N)=O)C(=O)N[C@@H](CCCCN)C(=O)NCC(=O)N[C@@H](CCCCN)C(=O)N[C@@H](CCCCN)C(=O)N[C@@H](CC(N)=O)C(=O)N[C@@H](CC(=O)O)C(=O)N[C@@H](Cc1c[nH]c2ccccc12)C(=O)N[C@@H](CCCCN)C(=O)N[C@@H](Cc1c[nH]cn1)C(=O)N[C@@H](CC(N)=O)C(=O)N[C@H](C(=O)N[C@H](C(=O)N[C@@H](CCC(N)=O)C(=O)O)[C@@H](C)O)[C@@H](C)CC)C(C)C)[C@@H](C)CC [Example 15, (3Br-Tyr^1, Aib^2, A5c^11, Nle^14)hGIP(1-42)-OH] | 0.6 nM | 50.6 h | 22.9 h
6 | CCCC[C@H](NC(=O)[C@H](C)NC(=O)[C@@H](NC(=O)C1(NC(=O)[C@H](Cc2ccc(O)cc2)NC(=O)[C@H](CC(=O)O)NC(=O)[C@H](CO)NC(=O)[C@@H](NC(=O)[C@H](Cc2ccccc2)NC(=O)[C@@H](NC(=O)CNC(=O)[C@H](CCC(=O)O)NC(=O)C(C)(C)NC(=O)[C@@H](N)Cc2cc(F)cc(F)c2)[C@@H](C)O)[C@@H](C)CC)CCCC1)[C@@H](C)CC)C(=O)N[C@@H](CC(=O)O)C(=O)N[C@@H](CCCCN)C(=O)N[C@H](C(=O)N[C@@H](Cc1c[nH]cn1)C(=O)N[C@@H](CCC(N)=O)C(=O)N[C@@H](CCC(N)=O)C(=O)N[C@@H](CC(=O)O)C(=O)N[C@@H](Cc1ccccc1)C(=O)N[C@H](C(=O)N[C@@H](CC(N)=O)C(=O)N[C@@H](Cc1c[nH]c2ccccc12)C(=O)N[C@@H](CC(C)C)C(=O)N[C@@H](CC(C)C)C(=O)N[C@@H](C)C(=O)N[C@@H](CCC(N)=O)C(=O)N[C@@H](CCCCN)C(=O)NCC(=O)N[C@@H](CCCCN)C(=O)N[C@@H](CCCCN)C(=O)N[C@@H](CC(N)=O)C(=O)N[C@@H](CC(=O)O)C(=O)N[C@@H](Cc1c[nH]c2ccccc12)C(=O)N[C@@H](CCCCN)C(=O)N[C@@H](Cc1c[nH]cn1)C(=O)N[C@@H](CC(N)=O)C(=O)N[C@H](C(=O)N[C@H](C(=O)N[C@@H](CCC(N)=O)C(=O)O)[C@@H](C)O)[C@@H](C)CC)C(C)C)[C@@H](C)CC [Example 25, (3,5F-Phe^1, Aib^2, A5c^11, Nle^14)hGIP(1-42)-OH] | 26 nM | > 74 h | > 74 h
